# Experimental data from article PMC11647725, “Discovery of 4-(5-Membered)Heteroarylether-6-methylpicolinamide Negative Allosteric Modulators of Metabotropic Glutamate Receptor Subtype 5” (ACS Medicinal Chemistry Letters, 2024).
# Legend:
# human mGlu2 = biological target: T1, human mGlu2 (Homo sapiens, UniProt Q14416); test: mGlu selectivity, thallium flux GIRK assay; type: cell-based
# T1 construct: expressed in transfected cells
# Experimental: (§1) the presence of 5% CO2, the dye solutions were removed and replaced with assay buffer using a microplate washer, leaving 20 μL of assay buffer in the cell plate. The compound, agonist, and cell plates were placed inside the Functional Drug Screening System (FDSS 7000 or uCell, Hamamatsu, Japan) to measure the calcium flux. Assays were run at 37 °C. A triple add protocol was used to measure Ca kinetics. Briefly, after establishment of a fluorescence baseline for 2 seconds (excitation, 480 nm; emission, 530 nm), 20 µL of test compound was added to the cells and the response was measured for 140 seconds. This was followed by the addition of 10 µL (5X) of an EC20 concentration of Glu agonist, and the response of the cells was measured for 125 seconds. A third addition occurred by adding 12 uL (5X) of an EC80 concentration of Glu agonist and the response of the cells was measured for 90 seconds. […] Calcium fluorescence was recorded as fold over basal fluorescence and raw data were normalized to the maximal response to Glu agonist (ECMax). Compound-evoked decreases in calcium response in the presence of Glu EC80 agonist were determined as inhibition activity, and potency (IC50) and maximum inhibition responses (% GluMin) of compounds were determined using a four-parameter logistical equation using GraphPad Prism (La Jolla, CA) or the Dotmatics software platform (Woburn, MA) : […]
# (§2) The mGlu subtype selectivity of compounds was determined using calcium mobilization or thallium flux GIRK (G protein-regulated inwardly rectifying K channel) assays using the stable cell lines expressing the respective mGlu receptors. […]
# (§3) at RT using DL-AP4 for the agonist. mGlu8 cells were incubated with dye solution for 50 min at 37 °C in the presence of […] and FDSS assays were run at RT. To measure activity at mGlu2 and mGlu3, HEK293-GIRK cells stably expressing human mGlu2 and mGlu3 were assessed using thallium flux assay through GIRK channels as previously described in detail.3 […]
# human mGlu3 = biological target: T2, human mGlu3 (Homo sapiens, UniProt Q14832); test: mGlu selectivity, thallium flux GIRK assay; type: cell-based
# T2 construct: expressed in transfected cells
# Experimental: as §1, §2, §3
# Imidazoline I2, Central = test: Lead Profiling Screen, Eurofins Panlabs; type: binding; details: rat
# Source text: Nonetheless, as a non-aryl/heterobiaryl acetylene mGlu5 NAM with an encouraging in vivo rodent PK profile, we wished to further assess VU6043653 as a novel chemotype. Therefore, we compared metabolites in multiple species to better understand species differences in clearance and metabolism. […] Consistent with the high plasma clearance observed in dogs, high turnover was observed more so in dog hepatocytes than any other species tested (see the Supporting Information for additional details and results). To further evaluate our novel chemotype, the off-target and safety/toxicity profiles for this compound were further investigated.
# Table S2. Lead Profiling Screen – Eurofins Panlabs for VU6043653.
# Assay Name Species % inh at 10 μM […]
# Imidazoline I2, Central rat -1
# Thyroid Hormone = test: Lead Profiling Screen, Eurofins Panlabs; type: binding; details: rat
# T2 sequence (Q14832 23-879): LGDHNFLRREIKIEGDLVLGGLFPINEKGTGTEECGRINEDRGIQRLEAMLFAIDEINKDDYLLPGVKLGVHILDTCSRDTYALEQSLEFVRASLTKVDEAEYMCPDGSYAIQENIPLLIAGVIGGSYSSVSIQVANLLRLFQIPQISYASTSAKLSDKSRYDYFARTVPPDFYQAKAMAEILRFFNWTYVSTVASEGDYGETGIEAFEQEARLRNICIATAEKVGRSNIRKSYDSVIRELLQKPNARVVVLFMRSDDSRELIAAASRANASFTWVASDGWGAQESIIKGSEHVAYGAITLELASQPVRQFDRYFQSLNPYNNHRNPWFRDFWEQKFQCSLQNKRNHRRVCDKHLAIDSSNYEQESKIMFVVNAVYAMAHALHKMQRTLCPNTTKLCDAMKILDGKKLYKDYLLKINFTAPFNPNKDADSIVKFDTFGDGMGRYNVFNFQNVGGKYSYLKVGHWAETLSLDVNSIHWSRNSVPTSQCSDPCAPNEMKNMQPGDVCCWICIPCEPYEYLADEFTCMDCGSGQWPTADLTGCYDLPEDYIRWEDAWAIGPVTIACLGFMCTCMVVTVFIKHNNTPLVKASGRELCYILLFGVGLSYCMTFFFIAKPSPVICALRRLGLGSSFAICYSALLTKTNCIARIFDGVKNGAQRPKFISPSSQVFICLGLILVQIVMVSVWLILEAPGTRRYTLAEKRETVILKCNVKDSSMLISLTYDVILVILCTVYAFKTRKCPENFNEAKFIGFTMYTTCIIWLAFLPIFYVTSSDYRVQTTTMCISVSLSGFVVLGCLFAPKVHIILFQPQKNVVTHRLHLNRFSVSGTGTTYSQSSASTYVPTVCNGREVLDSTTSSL
# T1 sequence (Q14416 19-872): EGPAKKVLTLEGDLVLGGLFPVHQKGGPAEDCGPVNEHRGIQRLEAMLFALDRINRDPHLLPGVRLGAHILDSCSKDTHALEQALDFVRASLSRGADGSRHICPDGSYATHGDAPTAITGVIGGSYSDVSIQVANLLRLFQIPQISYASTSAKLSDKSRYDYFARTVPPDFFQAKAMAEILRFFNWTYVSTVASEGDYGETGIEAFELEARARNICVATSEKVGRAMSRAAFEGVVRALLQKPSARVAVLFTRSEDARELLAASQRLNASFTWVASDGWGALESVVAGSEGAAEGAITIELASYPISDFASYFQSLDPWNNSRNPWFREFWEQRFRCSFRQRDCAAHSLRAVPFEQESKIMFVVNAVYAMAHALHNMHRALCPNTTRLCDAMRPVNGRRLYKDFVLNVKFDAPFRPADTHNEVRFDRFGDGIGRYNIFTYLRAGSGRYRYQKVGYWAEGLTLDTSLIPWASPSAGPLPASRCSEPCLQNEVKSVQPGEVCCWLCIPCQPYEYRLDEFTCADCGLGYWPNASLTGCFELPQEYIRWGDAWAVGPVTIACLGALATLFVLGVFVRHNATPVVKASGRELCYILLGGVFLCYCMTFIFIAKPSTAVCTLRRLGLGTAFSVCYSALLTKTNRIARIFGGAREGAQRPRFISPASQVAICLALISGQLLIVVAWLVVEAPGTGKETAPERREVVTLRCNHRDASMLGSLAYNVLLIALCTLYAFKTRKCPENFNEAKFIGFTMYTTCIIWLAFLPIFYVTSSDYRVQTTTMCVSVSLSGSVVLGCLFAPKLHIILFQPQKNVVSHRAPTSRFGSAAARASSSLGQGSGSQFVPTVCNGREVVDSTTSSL
structure (smiles),measurement,setting,value
Cc1cc(Oc2cnn(C)c2)cc(C(=O)Nc2ccc(F)cn2)n1 [22iA],"IC50, human mGlu2",human mGlu2,inactive
same,"%GluMin, human mGlu3",human mGlu3,[58] %
same,IC50,human mGlu3,> 10 µM
same,% inh at 10 μM,"Imidazoline I2, Central",-1%
same,% inh at 10 μM,Thyroid Hormone,-2%
